How the values were obtained:
[1] = tested on: JHH-1 (Hepatocellular Carcinoma); assay: Bliss excess, mean over the matrix (fraction); higher = more synergy
Summary of the method: (§1)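 Cell lines grown in DMEM/F12 or RPMI with 10% FBS were plated in 1536-well plates and held 24 hours at 37°C, 5% CO2 before 72 hours of exposure to two-drug dose matrices, with DMSO typically at 0.2%. CellTiter-Glo 2.0 luminescence gave viability, which was converted to inhibition. Vehicle wells were set to 0 and blank wells to 1. Combination Emax is the second-highest inhibition in the matrix, and Bliss excess is the observed combination effect minus the expected EA + EB − EA·EB, where EA and EB are the single-agent effects.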

[2] = tested on: OVTOKO (Ovarian Carcinoma); assay: as above
Summary of the method: as §1

[3] = tested on: JHH-1 (Hepatocellular Carcinoma); assay: combination Emax (second highest fraction inhibited in the dose matrix, 72 h); higher = more inhibition; extreme values may be limits of the assay
Summary of the method: as §1

[4] = tested on: FLO-1 (Esophageal Adenocarcinoma); assay: as above
Summary of the method: as §1

[5] = tested on: KYSE-70 (Esophageal Squamous Cell Carcinoma); assay: as above
Summary of the method: as §1

[6] = tested on: Calu-6 (Non-Small Cell Lung Carcinoma); assay: as above
Summary of the method: as §1

[7] = tested on: Becker (Low Grade Glioma); assay: as above
Summary of the method: as §1

[8] = tested on: OCI-AML5 (Acute Myeloid Leukemia); assay: as above
Summary of the method: as §1

[9] = tested on: COLO-684 (Endometrial Carcinoma); assay: as above
Summary of the method: as §1

[10] = tested on: NCI-H1623 (Lung Adenocarcinoma); assay: as above
Summary of the method: as §1

[11] = tested on: NCI-H1563 (Lung Adenocarcinoma); assay: as above
Summary of the method: as §1

[12] = tested on: RPMI-8866 (Chronic Myelogenous Leukemia); assay: as above
Summary of the method: as §1

[13] = tested on: NCI-H1755 (Lung Adenocarcinoma); assay: as above
Summary of the method: as §1

[14] = tested on: AsPC-1 (Pancreatic Carcinoma); assay: as above
Summary of the method: as §1

[15] = tested on: NCI-H1155 (Non-Small Cell Lung Carcinoma); assay: as above
Summary of the method: as §1

[16] = tested on: RMG-I (Ovarian Carcinoma); assay: as above
Summary of the method: as §1

CHL-1 (Melanoma) = assay: as above
Summary of the method: as §1

[17] = tested on: EB-3 (Burkitt's Lymphoma); assay: as above
Summary of the method: as §1

[18] = tested on: HTC-C3 (Thyroid Gland Carcinoma); assay: as above
Summary of the method: as §1

KYM-1 (Rhabdomyosarcoma) = assay: as above
Summary of the method: as §1
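Throughout, for Bliss excess, mean over the matrix: after 72 h of two-drug dosing.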

| SMILES | Bliss excess [1] | Bliss excess [2] | combination Emax [3] | combination Emax [4] | combination Emax [5] | combination Emax [6] | combination Emax [7] | combination Emax [8] | combination Emax [9] | combination Emax [10] | combination Emax [11] | combination Emax [12] | combination Emax [13] | combination Emax [14] | combination Emax [15] | combination Emax [16] | combination Emax (CHL-1 (Melanoma)) | combination Emax [17] | combination Emax [18] | combination Emax (KYM-1 (Rhabdomyosarcoma)) |
| --- | --- | --- | --- | --- | --- | --- | --- | --- | --- | --- | --- | --- | --- | --- | --- | --- | --- | --- | --- | --- |
| COc1cccc(OCCCN)c1-c1cc(Nc2cnc(C#N)cn2)n[nH]1 [Prexasertib] + Cc1cc2ncnn2cc1Nc1ncc2c(n1)n(C1CCOCC1)c(=O)n2C [AZD7648] (first compound max 1 µM, 7x7, partner max 10 µM) | 0.0093 | -0.0079 | 0.559 | 0.703 | 0.615 | 0.796 | 0.707 | 0.988 | 0.844 | 0.804 | 0.466 | 1 | 0.918 | 0.425 | 0.92 | 0.678 | 0.838 | 0.791 | 0.843 | 0.942 |
| COc1cccc(OCCCN)c1-c1cc(Nc2cnc(C#N)cn2)n[nH]1 [Prexasertib] + O=C(c1cc(Cc2n[nH]c(=O)c3ccccc23)ccc1F)N1CCN(C(=O)C2CC2)CC1 [Olaparib] (first compound max 1 µM, 7x7, partner max 10 µM) | -0.0416 | -0.035 | 0.582 | 0.677 | 0.626 | 0.698 | 0.704 | 0.991 | 0.707 | 0.813 | 0.27 | 1 | 0.907 | 0.332 | 0.927 | 0.515 | 0.838 | 0.694 | 0.751 | 0.855 |
| COc1cc2c(cc1OCCCCCOc1cc3c(cc1OC)C(=O)N1C=C(C)C[C@H]1C=N3)N=C[C@@H]1CC(C)=CN1C2=O [SG3199] + O=C(c1cc(Cc2n[nH]c(=O)c3ccccc23)ccc1F)N1CCN(C(=O)C2CC2)CC1 [Olaparib] (first compound max 0.001 µM, 7x7, partner max 10 µM) | -0.0059 | -0.0476 | 0.136 | 0.186 | 0.0678 | 0.186 | 0.0512 | 0.182 | 0.0915 | 0.376 | 0.173 | 0.263 | 0.202 | 0.02 | 0.263 | 0.114 | 0.092 | 0.0944 | 0.246 | 0.169 |
| CCc1c2c(nc3ccc(O)cc13)-c1cc3c(c(=O)n1C2)COC(=O)[C@]3(O)CC [SN-38] + CN(C)CCCOc1ccc(-c2ccc3ncc4c(c3c2)n(C2CCOCC2)c(=O)n4C)cn1 [AZD0156] (first compound max 0.3 µM, 7x7, partner max 1 µM) | -0.018 | -0.0523 | 0.316 | 0.664 | 0.25 | 0.762 | 0.847 | 0.998 | 0.473 | 0.822 | 0.441 | 0.982 | 0.752 | 0.135 | 0.962 | 0.446 | 0.567 | 0.748 | 0.764 | 0.952 |
| C[C@@H](c1ccc2nccn2c1)n1nnc2ncc(-c3cnn(C)c3)nc21 [Savolitinib] + CC1(C)CCC(CN2CCN(c3ccc(C(=O)NS(=O)(=O)c4ccc(NCC5CCOCC5)c([N+](=O)[O-])c4)c(Oc4cnc5[nH]ccc5c4)c3)CC2)=C(c2ccc(Cl)cc2)C1 [Venetoclax] (first compound max 1 µM, 7x7, partner max 1 µM) | -0.0529 | -0.0675 | 0.114 | 0.2 | 0.095 | 0.194 | 0.344 | 0.883 | 0.174 | 0.173 | 0.18 | 0.0738 | 0.101 | 0.107 | 0.149 | 0.208 | 0.118 | 0.253 | 0.127 | 0.185 |
| C[C@@H](c1ccc2nccn2c1)n1nnc2ncc(-c3cnn(C)c3)nc21 [Savolitinib] + Cc1c2c(nn1C)CSCc1cc(n(C)n1)CSc1cc(c3ccccc3c1)OCCCc1c(C(=O)O)n(C)c3c-2c(Cl)ccc13 [AZD5991] (first compound max 1 µM, 7x7, partner max 1 µM) | -0.0462 | -0.0743 | 0.208 | 0.294 | 0.107 | 0.172 | 0.366 | 0.137 | 0.174 | 0.802 | 0.465 | 0.108 | 0.173 | 0.184 | 0.114 | 0.216 | 0.291 | 0.361 | 0.182 | 0.43 |
| Cn1cnc2c(F)c(Nc3ccc(Br)cc3Cl)c(C(=O)NOCCO)cc21 [Selumetinib] + C=CCn1c(=O)c2cnc(Nc3ccc(N4CCN(C)CC4)cc3)nc2n1-c1cccc(C(C)(C)O)n1 [AZD1775] (first compound max 10 µM, partner max 1 µM) | 0.0171 | -0.114 | 0.599 | 0.792 | 0.328 | 0.855 | 0.309 | 0.944 | 0.708 | 0.607 | 0.303 | 0.956 | 0.776 | 0.437 | 0.342 | 0.359 | 0.572 | 0.703 | 0.691 | 0.591 |
| Cn1cnc2c(F)c(Nc3ccc(Br)cc3Cl)c(C(=O)NOCCO)cc21 [Selumetinib] + CC(C)n1c(=O)n(C)c2cnc3cc(F)c(-c4ccc(OCCCN5CCCCC5)nc4)cc3c21 [AZD1390] (first compound max 10 µM, 7x7, partner max 0.3 µM) | -0.0268 | -0.0509 | 0.252 | 0.424 | 0.168 | 0.672 | 0.235 | 0.9 | 0.125 | 0.276 | 0.161 | 0.193 | 0.235 | 0.357 | 0.23 | 0.362 | 0.0273 | 0.215 | 0.591 | 0.141 |
| Cn1cnc2c(F)c(Nc3ccc(Br)cc3Cl)c(C(=O)NOCCO)cc21 [Selumetinib] + CCN(CCO)CCCOc1ccc2c(Nc3cc(CC(=O)Nc4cccc(F)c4)[nH]n3)ncnc2c1 [AZD2811] (first compound max 10 µM, 7x7, partner max 1 µM) | -0.0327 | -0.0303 | 0.375 | 0.475 | 0.21 | 0.733 | 0.296 | 1 | 0.14 | 0.331 | 0.232 | 0.34 | 0.541 | 0.443 | 0.674 | 0.364 | 0.257 | 0.219 | 0.654 | 0.318 |
| Cn1cnc2c(F)c(Nc3ccc(Br)cc3Cl)c(C(=O)NOCCO)cc21 [Selumetinib] + C[C@@H]1COCCN1C2=NC(=NC(=C2)C3(CC3)[S@](=N)(=O)C)C4=C5C=CNC5=NC=C4 [AZD6738] (first compound max 10 µM, 7x7, partner max 10 µM) | 0.0427 | -0.0278 | 0.436 | 0.635 | 0.243 | 0.817 | 0.427 | 1 | 0.698 | 0.771 | 0.313 | 0.943 | 0.738 | 0.435 | 0.758 | 0.354 | 0.772 | 0.589 | 0.75 | 0.899 |
| CC(=O)Nc1cccc(-n2c(=O)n(C3CC3)c(=O)c3c(Nc4ccc(I)cc4F)n(C)c(=O)c(C)c32)c1 [Trametinib] + Cc1nc(-c2cn3c(n2)-c2ccc(-c4cnn(C(C)(C)C(N)=O)c4)cc2OCC3)n(C(C)C)n1 [Taselisib] (first compound max 1 µM, 7x7, partner max 10 µM) | 0.0177 | 0.0659 | 1 | 0.665 | 0.804 | 0.987 | 0.678 | 1 | 0.57 | 1 | 0.793 | 0.71 | 0.978 | 0.608 | 0.348 | 0.485 | 0.638 | 0.373 | 0.744 | 0.4 |
| CC1(C)CCC(CN2CCN(c3ccc(C(=O)NS(=O)(=O)c4ccc(NCC5CCOCC5)c([N+](=O)[O-])c4)c(Oc4cnc5[nH]ccc5c4)c3)CC2)=C(c2ccc(Cl)cc2)C1 [Venetoclax] + C1CN(CCC1(C(=O)N[C@@H](CCO)C2=CC=C(C=C2)Cl)N)C3=NC=NC4=C3C=CN4 [Capivasertib] (first compound max 1 µM, 7x7, partner max 3 µM) | -0.0721 | -0.0546 | 0.115 | 0.192 | 0.234 | 0.111 | 0.359 | 0.958 | 0.625 | 0.314 | 0.396 | 0.292 | 0.648 | 0.207 | 0.289 | 0.242 | 0.163 | 0.176 | 0.163 | 0.0721 |
| CC1(C)CCC(CN2CCN(c3ccc(C(=O)NS(=O)(=O)c4ccc(NCC5CCOCC5)c([N+](=O)[O-])c4)c(Oc4cnc5[nH]ccc5c4)c3)CC2)=C(c2ccc(Cl)cc2)C1 [Venetoclax] + C=CCn1c(=O)c2cnc(Nc3ccc(N4CCN(C)CC4)cc3)nc2n1-c1cccc(C(C)(C)O)n1 [AZD1775] (first compound max 1 µM, partner max 1 µM) | 0.0213 | -0.0903 | 0.578 | 0.84 | 0.604 | 0.787 | 0.76 | 1 | 0.732 | 0.577 | 0.371 | 0.951 | 0.846 | 0.282 | 0.223 | 0.57 | 0.891 | 0.674 | 0.341 | 0.314 |

Source: the supplement of paper PMC11061612
